We go through four compounds from article PMC11335710 (GeroScience, 2024).

Entries after “also recorded” stand apart in the source; their conditions may differ. Ends that are not written are not given here.

Data set [1] relates to SH-SY5Y human neuroblastoma cells. In words: 6-OHDA-mediated cell loss in SH-SY5Y cells (TOPRO-3 cell density). Format: cell-based. Particulars: 6-OHDA 100 µM 2 h, GLP-1 or GIP 10 nM, DPP-4 inhibitor 1 µM, read at 24 h.
Protocol: Five minutes later, the cells were treated with vehicle or freshly prepared 6-OHDA (100 µM) for 2 h. GIP, GLP-1, and DPP-4 inhibitor or vehicle were added to the media again after three washes. […] The cells were then washed in PBS for three times and, thereafter, were imaged using a Licor Odyssey IR scanner. Cell density in each well was analyzed by using Licor Odyssey In Cell Western analyses software v 3.0, as previously described [45].
In our study, TOPRO-3 was applied to cells after fixation with 4% PFA. The cells were washed in PBS for three times and, thereafter, were imaged using a Licor Odyssey IR scanner. Under these conditions, it is likely that any dead cells were washed away before quantifying fluorescence.
A further data set concerns 6-OHDA lesioned rats. Particulars: rats with unilateral medial forebrain bundle 6-OHDA lesion; cited from earlier work.
Data set [2] deals with rat primary ventral mesencephalic cultures. In words: 6-OHDA toxicity in rat primary ventral mesencephalic cultures (TH cell density). Format: cell-based. Particulars: rat primary VM cultures, 6-OHDA 100 µM 2 h; for Effect of co-administered DPP-4 inhibitor on protective response of GIP and GLP-1 (TH cell density): PF-00734,200 1 µM with GLP-1 or GIP 10 nM; for Effect on 6-OHDA-mediated reduction in TH cell density: GLP-1 or GIP 10 nM, fixed 22 h after washing. The source says: Primary cultures were generated from embryonic (E14-15) ventral mesencephalon (VM) brain tissue removed from fetuses of timed-pregnant Sprague–Dawley rats (Charles River Laboratories, Wilmington, MA), in line with published procedures with minor modifications. Briefly, the whole brain was removed aseptically, and a small piece of tissue containing the VM was separated. Blood vessels and meninges were detached, and remaining pooled VM tissues were gently trypsinized (0.25% (Invitrogen, Carlsbad, CA), 15 min at 37°C). Trypsin was removed with pre-warmed DMEM/F-12 (Invitrogen), and cells were dissociated by trituration and then counted and plated into 96-well (6.0 × 10^4/well) cell culture plates that were pre-coated with poly-D-lysine (Sigma-Aldrich). The culture plating medium was Dulbecco’s modified Eagle medium/F12 supplemented with 10% heat-inactivated fetal bovine serum, 1 mM L-glutamine, and 2% B27 (Invitrogen). VM cells were maintained at 37°C in a humidified atmosphere (5% CO2 and 95% air) and fed by exchanging 50% of media with feed media (Neurobasal medium, Invitrogen) with 0.5 mM L-glutamate and 2% B27 with antioxidants supplement on DIV (days in vitro) 3 and 5. On DIV7, VM cultures were fed with media containing B27 supplement minus antioxidants (Invitrogen). Thereafter, freshly prepared 6-OHDA (100 µM in 20 µM ascorbic acid saline solution) or saline (with 20 µM ascorbic acid) was added to the wells on DIV 10. Following 2-h incubation, cultures were washed with feed media plus ( −) AO B27 three times. DPP-4 inhibitor (PF-00734,200), incretins, or vehicle was added to the well at the last wash as a post-treatment strategy. Cells were returned to a 37°C incubator for 22 h and then fixed with 4% paraformaldehyde (PFA) for immunoreactivity evaluation.

The test system of a further data set is GLP-1 and GIP. Kind of data set: CSF GLP-1 and GIP levels in NHPs (both incretins, summary in text). Format: in vivo, Macaca mulatta. Particulars: CSF at 3 and 5 h after day 6 sitagliptin, NHP. The protocol:
(§1) Immediately thereafter, an oral glucose tolerance test was performed to stimulate incretin secretion. This is designated as time zero (i.e., 0) in Figs. 2, 4 and 5.
(§2) Further samples were collected without the inhibitor for DPP-4 analysis to permit quantification of DPP-4 inhibition. Incretin levels were measured with the following assays: Active GLP-1 ((ver 2 kit) Meso Scale Diagnostic), Active GIP (ELISA kit—IBL America), DPP-4 activity was evaluated by fluorometric assay using a DPPIV/CD26 assay kit for biological samples ((BML-AK498-0001) Enzo Life Sciences, Farmingdale, NY).

Details of data set [3]: method as in Reference 33 within 44. Particulars: Merck's data on file; ref Reference 33 within 44; cited from earlier work.
For data set [4] the following is noted: cited from earlier work.
A short description of a further data set: in vivo. As to conditions: both, Macaca mulatta.
In data set [5] the test system is organic anion transporter 3 (hOAT3). As to conditions: in relation to renal clearance; cited from earlier work.
The next data set concerns p-glycoprotein. As to conditions: in relation to renal clearance; cited from earlier work.
Data set [6] can be described thus: Plasma sitagliptin pharmacokinetics in nonhuman primates (LC-MS, noncompartmental analysis). The protocol: Animals included Macaca mulatta of 7 to 20 kg weight, mixed gender, 12 to 19 years of age (n = 5 to 7 per group). […] Commercially prepared monkey chow was distributed twice per day along with daily food enrichment, and water was available ad libitum. Monkeys were observed daily for food consumption and overall well-being.
as §1, §2
A noncompartmental approach to pharmacokinetic analysis was employed using Phoenix WinNonlin v8.3 (Certara Corp, Cary, NC). The maximum plasma concentration (Cmax) and the time of maximum plasma concentration (Tmax) were recorded as observed values. […] AUCINF (the AUC from time zero to infinity) was calculated by extrapolation by dividing Clast (the last measurable drug concentration) by the rate constant of the terminal phase, lZ (Kel). This constant was determined from the slope of the terminal phase of the concentration–time curve using uniformly weighted least squares as the estimation procedure and acceptance criteria of (i) adjusted r^2 > 0.8 and (ii) includes > 3 time points in the terminal phase.

[7] abbreviates: both, rhesus monkey, in vivo, po, 5 mg/kg.
The mark [8] stands for this setting: both, rhesus monkey, in vivo, po, 20 mg/kg.
Setting [9] is: both, rhesus monkey, in vivo, po, 100 mg/kg.

Regarding `O=C([C@@H]1C[C@H](N2CCN(c3ncccn3)CC2)CN1)N1CCC(F)(F)C1` [PF-00734,200, gosogliptin], the “Effect on 6-OHDA-mediated cell loss (TOPRO-3 fluorescence cell density)” value (“Effect on 6-OHDA-mediated cell loss” below) in data set [1] (listed as DPP-4I) is “ameliorated”; in data set [1] (listed as DPP-4 inhibitor) it was “partially mitigated”. In addition, the “Effect on dopaminergic neurons, dopamine levels and methamphetamine-mediated rotation” value in the data set with 6-OHDA lesioned rats is “mitigated the loss of dopaminergic neurons and dopamine levels”. Further, the “Effect of co-administered DPP-4 inhibitor on protective response of GIP and GLP-1 (TH cell density)” value in data set [2] was “significantly potentiated”; in [2] (listed as DPP-4I) it was “further reduced”.

As to `N[C@@H](CC(=O)N1CCn2c(nnc2C(F)(F)F)C1)Cc1cc(F)c(F)cc1F` [sitagliptin], the “Elevation of CSF levels of GLP-1 and GIP vs placebo” value in the data set with GLP-1 and GIP is recorded as 2.0- to 3.4 fold. Besides, the “Maximally well-tolerated sitagliptin dose in NHPs” value in data set [3] was 100 mg/kg. For the same compound, the log P (as a rule, a log measure of how a compound divides between an organic and an aqueous phase) in data set [4] was 1.5. In “in vivo”, the Kp at 3 h turned out to be 0.01 and the Kp at 5 h stood at 0.01. The “Substrate for organic anion transporter 3 (hOAT3)” value in data set [5] is given as “substrate”. In addition, the “Effect on dopaminergic neurons, dopamine levels and methamphetamine-mediated rotation” value with 6-OHDA lesioned rats was “mitigated the loss of dopaminergic neurons and dopamine levels”. In addition, the Substrate for p-glycoprotein result in the data set on p-glycoprotein was “substrate”. Also, in [6] (20 mg/kg oral once daily, day 6, NHP plasma), the Tmax (commonly the time at which the peak concentration occurs) was found to be 2 h. In data set [6] (both, Macaca mulatta, in vivo, po), the Tmax is 2 h. In data set [6] (setting [7]), the AUC(0-inf) – broadly, total exposure, with the tail of the curve extrapolated – worked out at 8.81 µM·h; the AUC(0-t) (usually the area under the concentration-time curve up to a stated or last time point) is 7.83 µM·h; the peak level (Cmax) was 0.768 µM; the half-life (commonly the time needed for the level to fall by half in the phase considered) was 8.4 h. In data set [6] (setting [7]), this compound gave a k el of 2.28e-05 s⁻¹. Also, in data set [6] (setting [8]), the AUC(0-inf) is 50.9 µM·h; the AUC(0-t) was 49.6 µM·h; the Cmax (in general, the highest concentration seen after dosing) is 7.06 µM; the half-life worked out at 5 h. In data set [6] (setting [8]), this compound gave a k el of 3.87e-05 s⁻¹. In data set [6] (setting [9]), the AUC(0-inf) amounted to 214 µM·h, the AUC(0-t) was 193 µM·h, the Cmax was 13.7 µM and the Tmax lay within 2 to 8 h. Besides, in data set [6] (setting [9]), the half-life was 6.7 h and the k el is 2.85e-05 s⁻¹. Moreover, the Cmax in data set [6] (both, rhesus, Macaca mulatta, in vivo, po, 5 mg/kg) was 0.768 µM.

Regarding “glucagon-like peptide-1 (HAEGTFTSDVSSYLEGQAAKEFIAWLVKGR; ends and bridges not checked; UniProt P01275 98-127, looked up) [GLP-1, endogenous incretin hormone added to cultures at 10 nM]”, the “Effect on 6-OHDA-mediated cell loss” value in [1] was “partially mitigated; also recorded: ameliorated”. In addition, the “Effect on 6-OHDA-mediated reduction in TH cell density” value in data set [2] is listed as “partially but significantly mitigated”; in [2] (listed as GLP‐1) it was “significant amelioration”.

With “glucose-dependent insulinotropic polypeptide [GIP]”, in data set [1], the “Effect on 6-OHDA-mediated cell loss” value is recorded as “significantly antagonized; also recorded: ameliorated; also recorded: fully protected against cell loss”. Further, the “Effect on 6-OHDA-mediated reduction in TH cell density” value in data set [2] is on record as “partially but significantly mitigated; also recorded: significant amelioration”.
